Test results reported in US20170342312A1, “COMPOSITION AND METHOD FOR VISCOSITY CONTROL IN DELIVERY APPLICATIONS USING SUBSEA UMBILICALS” (BAKER HUGHES, A GE COMPANY, LLC, priority 2016, published 2017).
“And” between values parts separate entries of the source, which are not always exact repeats. Equal entries are not always repeated. Where two headings read alike, the source gives them in different places.

Assays:
[1] = Solvent freezing point; format: physicochemical
[2] = Solvent flash point; format: physicochemical
[3] = Solvent viscosity at 20° C.; format: physicochemical; settings: 20° C./1 Bar
[4] = at 20° C.; background statement; cited from earlier work
[5] = Corrosion rate, autoclave tests; settings: corrosion values of Tables 2 and 3
Experimental: The corrosion rates shown in Table 2 were obtained using autoclave tests at 80° C., a partial pressure of CO2 of 0.75 bar, a brine/hydrocarbon ratio of 99 to 1 and a shear stress of 60 Pa.

[6] = according to MSDS; cited from earlier work
[7] = test system: fish; settings: according to MSDS; cited from earlier work
[8] = test system: invertebrates; settings: in vivo; cited from earlier work
[9] = according to MSDS; cited from earlier work; remark: listed apart in the source
[10] = test system: algae; settings: according to MSDS; cited from earlier work
[11] = listed as ethylene glycol n-butyl ether acetate

Row | SMILES | Freezing Point [1] [°C] | Flash Point [2] [°C] | Viscosity [3] [cP] | also measured
1 | CCCCOCCO [Butyl Cellosolve ™, ethylene glycol monobutyl ether] | −75.0 | 67.0 | 2.9 | 
2 | CC(O)CO (stereo not drawn) [Propylene Glycol] | −59.0 | 99.0 | 55.0 | 
3 | O [Water] | 0 |  | 0.895 | 
4 | CO [Methanol] | −97.8 | 12 | 0.59 | 
5 | OCCO [Monoethylene Glycol] | −13.0 | 116 | 17.3 | Viscosity [4]: 17 cP
6 | CC(C)O [Isopropanol] | −89.0 | 14 | 2.1 | 
7 | CCCCOCCOC(C)=O [Ethylene Glycol N-Butyl Ether Acetate, ethylene glycol n-butyl ether acetate] | −64.0 | 78 | 1.81 | effect of solvent on performance of the corrosion inhibitors [5]: did not significantly affect the performance of the corrosion inhibitors; Freezing Point [1, 11]: about −64 °C; biodegradable in seawater [6]: 77-90%; LC50 for fish [7]: > 10 mg/L; Flash Point [2, 11]: about 78 °C; EC50 for invertebrates [8]: > 10 mg/L; Log Pow bioaccumulation potential [9]: less than 3; EbC50 for algae [10]: > 10 mg/L; Viscosity [3, 11]: 1.79 cP and 1.81 cP
